Source: patent US20260315492A1, “5,6-FUSED BICYCLIC AMIDES AND COMPOSITIONS FOR USE AS 15-PROSTAGLANDIN DEHYDROGENASE MODULATORS” (AMGEN INC., priority 2023, published 2026)
pIC50: −log10 of the molar value.

What follows are compounds tested against T1, human recombinant 15-PGDH (Homo sapiens, UniProt P15428) (assay: Inhibition of recombinant 15-PGDH enzymatic activity (NADH quantification after addition of PGE2 and NAD+)). Settings: recombinant 15-PGDH; 15 min pre-incubation, 60-minute reaction, room temperature, pH 7.5; PGE2 and NAD+; read-out: PGDH-Lumi IC50.
T1 sequence (P15428 1-266): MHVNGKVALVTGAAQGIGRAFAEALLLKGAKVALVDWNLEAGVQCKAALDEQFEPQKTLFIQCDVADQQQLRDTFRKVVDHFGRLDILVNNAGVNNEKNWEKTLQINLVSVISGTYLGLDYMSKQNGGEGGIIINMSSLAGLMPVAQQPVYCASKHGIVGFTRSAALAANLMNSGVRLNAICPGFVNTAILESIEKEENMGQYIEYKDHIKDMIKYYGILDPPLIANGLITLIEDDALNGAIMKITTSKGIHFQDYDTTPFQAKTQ
Assay type: biochemical
Procedure, shortened: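 Human recombinant 15-PGDH in 50 mM Tris pH 7.5, 0.01% Tween-20, 100 μM DTT, pre-incubated 15 min at room temperature with 22-point 2-fold compound dilutions. Reaction started with PGE2 and β-NAD+, run 60 min at room temperature, quenched. NADH signal read as activity; IC50 from concentration-response.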

| pIC50 | Structure (SMILES) |
| --- | --- |
| 4.84 | O=C(c1nc2ccc(N3CCOCC3)nc2s1)N1CCOCC1 [Compound C50, 4-morpholinyl(5-(4-morpholinyl)[1,3]thiazolo[5,4-b]pyridin-2-yl)methanone] |
| 7.75 | Cn1cc2cc(-c3ccc4nc(C(=O)N5CCOCC5)sc4n3)cnc2n1 [Compound C51, (5-(2-methyl-2H-pyrazolo[3,4-b]pyridin-5-yl)[1,3]thiazolo[5,4-b]pyridin-2-yl)(4-morpholinyl)methanone] |
| 7.77 | C[C@@H]1COCCN1C(=O)c1nc2ccc(-c3cnc4nn(C)cc4c3)nc2s1 [Compound C52R, ((3R)-3-methyl-4-morpholinyl)(5-(2-methyl-2H-pyrazolo[3,4-b]pyridin-5-yl)[1,3]thiazolo[5,4-b]pyridin-2-yl)methanone] |
| 7.59 | C[C@H]1COCCN1C(=O)c1nc2ccc(-c3cnc4nn(C)cc4c3)nc2s1 [Compound C52S, ((3S)-3-methyl-4-morpholinyl)(5-(2-methyl-2H-pyrazolo[3,4-b]pyridin-5-yl)[1,3]thiazolo[5,4-b]pyridin-2-yl)methanone] |
